Test results published in patent publication US8759366B2, “Aminopyrimidines as SYK inhibitors” (Merck Sharp & Dohme Corp., priority 2009, dated 2014).

What follows are compounds tested against recombinant human SYK (GST-hSYK fusion protein) (Homo sapiens (Human), UniProt P43405). Conditions: read-out: rhSYK Activity; Table 33D.
Description: Homogeneous Time-Resolved Fluorescence (HTRF) Assay for the Recombinant Human SYK Enzyme:

| SMILES | IC50 |
| --- | --- |
| Cc1cc(Nc2nccc(C(F)(F)F)n2)cc(-c2cnc(C(C)(O)c3ccc(NC(=O)CCCC(=O)O)cc3)s2)c1 (stereo not drawn) [Example 33D-15] | < 100 nM |
| Cc1cc(Nc2nccc(C(F)(F)F)n2)cc(-c2cnc(C(C)(O)c3ccc(C(=O)O)cc3)s2)c1 (stereo not drawn) [Example 33D-16] | < 100 nM |
| COC(=O)c1ccc(C(C)(O)c2ncc(-c3cc(C)cc(Nc4nccc(C(F)(F)F)n4)c3)s2)cc1 (stereo not drawn) [Example 33D-17] | 100 to 1000 nM |

Same assay, conditions: read-out: rhSYK Activity; Table 36A

| SMILES | IC50 |
| --- | --- |
| CCOC(=O)C1CCC(c2ncc(-c3cc(C)cc(Nc4nccc(C(F)(F)F)n4)c3)s2)CC1 (stereo not drawn) [Example 36A-2] | 100 to 1000 nM |
| O=C(O)C1CCC(c2ncc(-c3cccc(Nc4nccc(C(F)(F)F)n4)c3)s2)CC1 (stereo not drawn) [Example 36A-4] | < 100 nM |
| Cc1cc(Nc2nccc(C(F)(F)F)n2)cc(-c2cnc(C3CCCC(=O)C3)s2)c1 (stereo not drawn) [Example 36A-8] | < 100 nM |
| Cc1cc(Nc2nccc(C(F)(F)F)n2)cc(-c2cnc(C3CCCCC(=O)C3)s2)c1 (stereo not drawn) [Example 36A-10] | < 100 nM |
| Cc1cc(Nc2nccc(C(F)(F)F)n2)cc(-c2cnc(C3CCC4(CC3)OCCO4)s2)c1 [Example 36A-12] | 100 to 1000 nM |

Same assay, conditions: read-out: rhSYK Activity; Table 113A

| SMILES | IC50 |
| --- | --- |
| COc1ccnc(Nc2cc(C)cc(-c3cnc([C@]4(O)CC[C@@H](C(=O)O)[C@@H](C)C4)s3)c2)n1 [Example 113A-17] | < 100 nM |
| Cc1cc(Nc2ncc(F)c(C)n2)cc(-c2cnc([C@@]3(O)CC[C@H](C(=O)O)[C@H](C)C3)s2)c1 [Example 113A-18] | < 100 nM |
| CCOC(=O)C1CCC(O)(c2ncc(-c3cc(C)cc(Nc4nccc(OCCCOC)n4)c3)s2)CC1C (stereo not drawn) [Example 113A-47] | 100 to 1000 nM |
| COC(=O)[C@H]1CC[C@](O)(c2ncc(-c3cc(C)cc(Nc4nccc(C(F)(F)F)n4)c3)s2)CC1(C)C [Example 113A-65] | < 100 nM |
| CCOC(=O)C1CCC(O)(c2ncc(-c3cc(C)cc(Nc4nccc(C(F)(F)F)n4)c3)s2)C(C)C1C (stereo not drawn) [Example 113A-77] | < 100 nM |

Same assay, conditions: read-out: rhSYK Activity; Table 113D, upper part

| SMILES | IC50 |
| --- | --- |
| COC(=O)c1ccc(/C=C/c2ncc(-c3cc(C)cc(Nc4nccc(C(F)(F)F)n4)c3)s2)cc1 [Example 113D-4] | 100 to 1000 nM |
| COC(=O)c1ccc(C2(c3ncc(-c4cc(C)cc(Nc5nccc(C(F)(F)F)n5)c4)s3)CC2)cc1 [Example 113D-8] | 100 to 1000 nM |

Same assay, conditions: read-out: rhSYK Activity; Table 117; HTRF assay, IC50 class symbols

| SMILES | IC50 |
| --- | --- |
| Cc1cc(Nc2nccc(C(F)(F)F)n2)cc(-c2cnc(C3(O)CCC(C)(C(N)=O)CC3)s2)c1 (stereo not drawn) [Example 117-3] | < 100 nM |

Same assay, conditions: read-out: rhSYK Activity; Table 119; HTRF assay, IC50 class symbols

| SMILES | IC50 |
| --- | --- |
| Cc1cc(Nc2nccc(C(F)(F)F)n2)cc(-c2cnc(C3(O)CCC(C(=O)NO)CC3)s2)c1 (stereo not drawn) [Example 119-16] | < 100 nM |
| Cc1cc(Nc2nccc(C(F)(F)F)n2)cc(-c2cnc(C3(O)CCC(C(=O)NCc4ncc[nH]4)CC3)s2)c1 (stereo not drawn) [Example 119-38] | < 100 nM |
| Cc1cc(Nc2nccc(C(F)(F)F)n2)cc(-c2cnc(C3(O)CCC(C(=O)NCc4cnoc4)CC3)s2)c1 (stereo not drawn) [Example 119-41] | < 100 nM |
| Cc1cc(Nc2nccc(C(F)(F)F)n2)cc(-c2cnc(C3(O)CCC(C(=O)NCc4ccno4)CC3)s2)c1 (stereo not drawn) [Example 119-43] | < 100 nM |
| Cc1cc(Nc2nccc(C(F)(F)F)n2)cc(-c2cnc(C3(O)CCC(C(=O)NCc4ncon4)CC3)s2)c1 (stereo not drawn) [Example 119-45] | < 100 nM |
| Cc1cc(Nc2nccc(C(F)(F)F)n2)cc(-c2cnc(C3(O)CCC(C(=O)N(C)C4CCOC4)CC3)s2)c1 (stereo not drawn) [Example 119-48] | < 100 nM |
| Cc1cc(Nc2nccc(C(F)(F)F)n2)cc(-c2cnc(C3(O)CCC(C(=O)NCc4cncnc4)CC3)s2)c1 (stereo not drawn) [Example 119-57] | < 100 nM |
| Cc1cc(Nc2nccc(C(F)(F)F)n2)cc(-c2cnc(C3(O)CCC(C(=O)NCc4cccnn4)CC3)s2)c1 (stereo not drawn) [Example 119-58] | < 100 nM |
| Cc1cc(Nc2nccc(C(F)(F)F)n2)cc(-c2cnc(C3(O)CCC(C(=O)Nc4ccc(O)nc4)CC3)s2)c1 (stereo not drawn) [Example 119-61] | < 100 nM |
| Cc1cc(Nc2nccc(C(F)(F)F)n2)cc(-c2cnc(C3(O)CCC(C(=O)NCCN4CCCC4)CC3)s2)c1 (stereo not drawn) [Example 119-64] | < 100 nM |
| Cc1cc(Nc2nccc(C(F)(F)F)n2)cc(-c2cnc(C3(O)CCC(C(=O)NCc4cc(O)no4)CC3)s2)c1 (stereo not drawn) [Example 119-65] | < 100 nM |
| Cc1cc(Nc2nccc(C(F)(F)F)n2)cc(-c2cnc(C3(O)CCC(C(=O)NCc4ccns4)CC3)s2)c1 (stereo not drawn) [Example 119-66] | < 100 nM |
| Cc1cc(Nc2nccc(C(F)(F)F)n2)cc(-c2cnc(C3(O)CCC(C(=O)NCc4nncs4)CC3)s2)c1 (stereo not drawn) [Example 119-67] | < 100 nM |
| Cc1cc(Nc2nccc(C(F)(F)F)n2)cc(-c2cnc(C3(O)CCC(C(=O)NCCN4CCCC4=O)CC3)s2)c1 (stereo not drawn) [Example 119-78] | < 100 nM |
| Cc1cc(Nc2nccc(C(F)(F)F)n2)cc(-c2cnc(C3(O)CCC(C(=O)NCCN4CCNC4=O)CC3)s2)c1 (stereo not drawn) [Example 119-79] | < 100 nM |
| Cc1cc(Nc2nccc(C(F)(F)F)n2)cc(-c2cnc(C3(O)CCC(C(=O)NCCN4CCOCC4)CC3)s2)c1 (stereo not drawn) [Example 119-80] | < 100 nM |
| Cc1cc(Nc2nccc(C(F)(F)F)n2)cc(-c2cnc(C3(O)CCC(C(=O)NCc4ccc(CO)cc4)CC3)s2)c1 (stereo not drawn) [Example 119-85] | < 100 nM |
| Cc1cc(Nc2nccc(C(F)(F)F)n2)cc(-c2cnc(C3(O)CCC(C(=O)NCCN4CCCCC4=O)CC3)s2)c1 (stereo not drawn) [Example 119-89] | < 100 nM |
| Cc1cc(Nc2nccc(C(F)(F)F)n2)cc(-c2cnc(C3(O)CCC(C(=O)NCc4cccc5c4CNC5=O)CC3)s2)c1 (stereo not drawn) [Example 119-98] | < 100 nM |

Same assay, conditions: read-out: rhSYK Activity; recombinant human SYK, HTRF assay; class symbols

| SMILES | IC50 |
| --- | --- |
| COC(=O)NS(=O)(=O)N1CCC(O)(c2ncc(-c3cc(C)cc(Nc4nccc(OC)n4)c3)s2)CC1 [Example 54A-18] | < 100 nM |
| Cc1cc(Nc2nccc(C(F)(F)F)n2)cc(-c2cnc(C3(O)CCN(C(=O)CC(=O)O)CC3)s2)c1 [Example 54A-26] | < 100 nM |
| CCCCNC(=O)N1CCC(O)(c2ncc(-c3cc(C)cc(Nc4nccc(C(F)(F)F)n4)c3)s2)CC1 [Example 54A-61] | < 100 nM |
| Cc1ccc(NC(=O)N2CCC(O)(c3ncc(-c4cc(C)cc(Nc5nccc(C(F)(F)F)n5)c4)s3)CC2)cc1 [Example 54A-62] | < 100 nM |
| Cc1cccc(NC(=O)N2CCC(O)(c3ncc(-c4cc(C)cc(Nc5nccc(C(F)(F)F)n5)c4)s3)CC2)c1 [Example 54A-63] | < 100 nM |
| Cc1cc(Nc2nccc(C(F)(F)F)n2)cc(-c2cnc(C3(O)CCN(C(=O)Nc4ccc(C)cc4C)CC3)s2)c1 [Example 54A-66] | < 100 nM |
| Cc1cc(Nc2nccc(C(F)(F)F)n2)cc(-c2cnc(C3(O)CCN(C(=O)Nc4cc(Cl)ccc4C)CC3)s2)c1 [Example 54A-68] | < 100 nM |
| Cc1cc(Nc2nccc(C(F)(F)F)n2)cc(-c2cnc(C3(O)CCN(C(=O)Nc4ccc(Cl)cc4C)CC3)s2)c1 [Example 54A-69] | < 100 nM |
| Cc1cc(Nc2nccc(C(F)(F)F)n2)cc(-c2cnc(C3(O)CCCN(CCF)CC3)s2)c1 (stereo not drawn) [Example 54A-82] | < 100 nM |
| Cc1cc(Nc2nccc(C(F)(F)F)n2)cc(-c2cnc(C3(O)CCCN(CC(=O)O)CC3)s2)c1 (stereo not drawn) [Example 54A-83] | 100 to 1000 nM |
| Cc1cc(Nc2nccc(C(F)(F)F)n2)cc(-c2cnc(C3(O)CCCN(CCC(=O)O)CC3)s2)c1 (stereo not drawn) [Example 54A-84] | < 100 nM |
| COC(=O)CCN1CCCC(O)(c2ncc(-c3cc(C)cc(Nc4nccc(C(F)(F)F)n4)c3)s2)CC1 (stereo not drawn) [Example 54A-88] | < 100 nM |
| Cc1cc(Nc2nccc(C(F)(F)F)n2)cc(-c2cnc(C3(O)CCCN(CC(=O)OC(C)(C)C)CC3)s2)c1 (stereo not drawn) [Example 54A-89] | < 100 nM |
| Cc1cc(Nc2nccc(C(F)(F)F)n2)cc(-c2cnc(C3(O)CN(C(N)=O)C3)s2)c1 [Example 54B-1] | < 100 nM |
| Cc1cc(Nc2ncc(F)c(C)n2)cc(-c2cnc(C3(O)CCN(C(N)=O)C3)s2)c1 (stereo not drawn) [Example 54B-16] | < 100 nM |
| Cc1cc(Nc2ncc(Cl)c(C)n2)cc(-c2cnc(C3(O)CCN(C(N)=O)C3)s2)c1 (stereo not drawn) [Example 54B-17] | < 100 nM |
| COc1nc(Nc2cc(C)cc(-c3cnc(C4(O)CCN(C(N)=O)C4)s3)c2)ncc1F (stereo not drawn) [Example 54B-18] | < 100 nM |
| Cc1cc(Nc2nccc(C(F)(F)F)n2)cc(-c2cnc(C3(O)CCN(C(=O)c4ocnc4C)C3)s2)c1 (stereo not drawn) [Example 54B-31] | < 100 nM |
| Cc1cc(Nc2nccc(C(F)(F)F)n2)cc(-c2cnc(C3(O)CCN(C4CC=C(C(=O)O)CC4)C3)s2)c1 (stereo not drawn) [Example 54B-33] | < 100 nM |
| COC(=O)c1cccc(N2CCC(O)(c3ncc(-c4cc(C)cc(Nc5nccc(C(F)(F)F)n5)c4)s3)C2)c1 (stereo not drawn) [Example 54B-35] | < 100 nM |
| Cc1cc(Nc2nccc(C(C)C)n2)cc(-c2cnc(C3(O)CCCN(C(=O)c4cnnn4C)CC3)s2)c1 (stereo not drawn) [Example 54D-17] | < 100 nM |
| Cc1cc(Nc2nccc(C(C)C)n2)cc(-c2cnc(C3(O)CCCN(C(=O)c4nnnn4C)CC3)s2)c1 (stereo not drawn) [Example 54D-18] | < 100 nM |

Same assay, conditions: read-out: rhSYK activity

| SMILES | IC50 |
| --- | --- |
| Cc1cc(Nc2nccc(C(F)(F)F)n2)cc(-c2cnc(C3(O)CCC(NC(=O)C(CO)(CO)CO)CC3)s2)c1 (stereo not drawn) [Example 54E-34] | < 100 nM |
| Cc1cc(Nc2nccc(C(F)(F)F)n2)cc(-c2cnc(C3(NS(=O)(=O)C(F)(F)F)COC3)s2)c1 [Example 61B-6] | < 100 nM |
| COc1ccnc(Nc2cc(C)cc(-c3cnc(C4(NC(N)=O)CCC4)s3)c2)n1 [Example 64-4] | < 100 nM |
| Cc1cc(Nc2nccc(OC3CCNCC3)n2)cc(-c2cnc(C3(NC(N)=O)CCC3)s2)c1 [Example 64-5] | < 100 nM |
| Cc1cc(Nc2nccc(OCCN3CC(F)C(F)C3)n2)cc(-c2cnc(C3(O)CCC3)s2)c1 (stereo not drawn) [Example 108A-5] | < 100 nM |
| Cc1cc(Nc2nccc(OCCC3CCCN3C)n2)cc(-c2cnc(C3(O)CCC3)s2)c1 (stereo not drawn) [Example 108A-17] | < 100 nM |
| CCCSc1ccnc(Nc2cc(C)cc(-c3cnc(C4(O)CCC4)s3)c2)n1 [Example 108A-42] | < 100 nM |

More lines, now with the values ahead:

| IC50 | SMILES |
| --- | --- |
| < 100 nM | Cc1cc(Nc2nccc(OC3CCNCC3)n2)cc(-c2cnc(C3(NC(=O)NC(N)=O)CCC3)s2)c1 [Example 65-5] |
| < 100 nM | Cc1cc(Nc2nccc(C(F)(F)F)n2)cc(-c2cnc(C3(NC(=O)C4(C(N)=O)CC4)COC3)s2)c1 [Example 67-1] |
